# Results published in patent US7723068B2, “Gene cluster involved in safracin biosynthesis and its uses for genetic engineering” (PharmaMar, S.A., priority 2002, dated 2010).
# Test system: DU-145
# Assay: cells
# Details: Homo sapiens, DU-145, read-out: GI50 DU-145
row,SMILES,GI50
1,COc1c(C)cc2c(c1O)C1NC(C2)C(O)N2C(CNC(=O)C(C)N)c3c(cc(C)c(OC)c3O)CC12 (centres unmarked) [Safracin P-19B],17 µM

# Same assay, conditions: Homo sapiens, DU-145, read-out: LC50 DU-145
row,SMILES,CC50
1,COc1c(C)cc2c(c1O)C1NC(C2)C(O)N2C(CNC(=O)C(C)N)c3c(cc(C)c(OC)c3O)CC12 (centres unmarked) [Safracin P-19B],> 19.5 µM

# Test system: DU-145
# Assay: not given
# Details: Prostate
row,SMILES,TGI DU-145
1,COc1c(C)cc2c(c1O)C1NC(C2)C(O)N2C(CNC(=O)C(C)N)c3c(cc(C)c(OC)c3O)CC12 (centres unmarked) [Safracin P-19B],>19.5 µM

# Test system: LN-caP
# Assay: not given
# Details: Prostate
row,SMILES,TGI LN-caP
1,COc1c(C)cc2c(c1O)C1NC(C2)C(O)N2C(CNC(=O)C(C)N)c3c(cc(C)c(OC)c3O)CC12 (centres unmarked) [Safracin P-19B],8.06 µM

# Test system: SK-MEL-28
# Assay: not given
# Details: Melanoma
row,SMILES,TGI SK-MEL-28
1,COc1c(C)cc2c(c1O)C1NC(C2)C(O)N2C(CNC(=O)C(C)N)c3c(cc(C)c(OC)c3O)CC12 (centres unmarked) [Safracin P-19B],>19.5 µM

# Test system: LOVO
# Assay: not given
# Details: Colon
row,SMILES,TGI LOVO
1,COc1c(C)cc2c(c1O)C1NC(C2)C(O)N2C(CNC(=O)C(C)N)c3c(cc(C)c(OC)c3O)CC12 (centres unmarked) [Safracin P-19B],>19.5 µM

# Test system: IGROV-ET
# Assay: not given
# Details: Ovary
row,SMILES,TGI IGROV-ET
1,COc1c(C)cc2c(c1O)C1NC(C2)C(O)N2C(CNC(=O)C(C)N)c3c(cc(C)c(OC)c3O)CC12 (centres unmarked) [Safracin P-19B],>19.5 µM

# Test system: LOVO-DOX
# Assay: not given
# Details: Colon
row,SMILES,TGI LOVO-DOX
1,COc1c(C)cc2c(c1O)C1NC(C2)C(O)N2C(CNC(=O)C(C)N)c3c(cc(C)c(OC)c3O)CC12 (centres unmarked) [Safracin P-19B],>19.5 µM

# Test system: HT29
# Assay: cells
# Details: Homo sapiens, HT-29, read-out: GI50 HT29
row,SMILES,GI50
1,COc1c(C)cc2c(c1O)C1NC(C2)C(O)N2C(CNC(=O)C(C)N)c3c(cc(C)c(OC)c3O)CC12 (centres unmarked) [Safracin P-19B],15.5 µM

# Same assay, conditions: Homo sapiens, HT-29, read-out: LC50 HT29
row,SMILES,CC50
1,COc1c(C)cc2c(c1O)C1NC(C2)C(O)N2C(CNC(=O)C(C)N)c3c(cc(C)c(OC)c3O)CC12 (centres unmarked) [Safracin P-19B],> 19.5 µM

# Test system: SK-BR3
# Assay: cells
# Details: Homo sapiens, SK-BR-3, read-out: GI50 SK-BR3
row,SMILES,GI50
1,COc1c(C)cc2c(c1O)C1NC(C2)C(O)N2C(CNC(=O)C(C)N)c3c(cc(C)c(OC)c3O)CC12 (centres unmarked) [Safracin P-19B],7.08 µM

# Same assay, conditions: Homo sapiens, SK-BR-3, read-out: LC50 SK-BR3
row,SMILES,CC50
1,COc1c(C)cc2c(c1O)C1NC(C2)C(O)N2C(CNC(=O)C(C)N)c3c(cc(C)c(OC)c3O)CC12 (centres unmarked) [Safracin P-19B],> 19.5 µM

# Test system: PANC1
# Assay: cells
# Details: Homo sapiens, PANC-1, read-out: GI50 PANC1
row,SMILES,GI50
1,COc1c(C)cc2c(c1O)C1NC(C2)C(O)N2C(CNC(=O)C(C)N)c3c(cc(C)c(OC)c3O)CC12 (centres unmarked) [Safracin P-19B],18.1 µM

# Same assay, conditions: Homo sapiens, PANC-1, read-out: LC50 PANC1
row,SMILES,CC50
1,COc1c(C)cc2c(c1O)C1NC(C2)C(O)N2C(CNC(=O)C(C)N)c3c(cc(C)c(OC)c3O)CC12 (centres unmarked) [Safracin P-19B],> 19.5 µM

# Test system: HELA
# Assay: cells
# Details: Homo sapiens, read-out: GI50 HELA
row,SMILES,GI50
1,COc1c(C)cc2c(c1O)C1NC(C2)C(O)N2C(CNC(=O)C(C)N)c3c(cc(C)c(OC)c3O)CC12 (centres unmarked) [Safracin P-19B],6.73 µM

# Same assay, conditions: Homo sapiens, read-out: LC50 HELA
row,SMILES,CC50
1,COc1c(C)cc2c(c1O)C1NC(C2)C(O)N2C(CNC(=O)C(C)N)c3c(cc(C)c(OC)c3O)CC12 (centres unmarked) [Safracin P-19B],> 19.5 µM

# Test system: IGROV-ET
# Assay: cells
# Details: read-out: GI50 IGROV-ET
row,SMILES,GI50
1,COc1c(C)cc2c(c1O)C1NC(C2)C(O)N2C(CNC(=O)C(C)N)c3c(cc(C)c(OC)c3O)CC12 (centres unmarked) [Safracin P-19B],8.74 µM

# Same assay, conditions: read-out: LC50 IGROV-ET
row,SMILES,CC50
1,COc1c(C)cc2c(c1O)C1NC(C2)C(O)N2C(CNC(=O)C(C)N)c3c(cc(C)c(OC)c3O)CC12 (centres unmarked) [Safracin P-19B],> 19.5 µM

# Test system: not listed separately
# Assay: Antibacterial and antitumoral activities, general statements
# Details: compared with safracin A / safracin B
row,SMILES,antibacterial and antitumoral activities (in words)
1,COc1c(C)cc2c(c1O)C1NC(C2)C(O)N2C(CNC(=O)C(C)N)c3c(cc(C)c(OC)c3O)CC12 (centres unmarked) [Safracin P-19B],appear to loose their activity

# Test system: SK-MEL-28
# Assay: cells
# Details: Homo sapiens, SK-MEL-28, read-out: GI50 SK-MEL-28
row,SMILES,GI50
1,COc1c(C)cc2c(c1O)C1NC(C2)C(O)N2C(CNC(=O)C(C)N)c3c(cc(C)c(OC)c3O)CC12 (centres unmarked) [Safracin P-19B],7.9 µM

# Same assay, conditions: Homo sapiens, SK-MEL-28, read-out: LC50 SK-MEL-28
row,SMILES,CC50
1,COc1c(C)cc2c(c1O)C1NC(C2)C(O)N2C(CNC(=O)C(C)N)c3c(cc(C)c(OC)c3O)CC12 (centres unmarked) [Safracin P-19B],> 19.5 µM

# Test system: LN-caP
# Assay: cells
# Details: Homo sapiens, LNCaP, read-out: GI50 LN-caP
row,SMILES,GI50
1,COc1c(C)cc2c(c1O)C1NC(C2)C(O)N2C(CNC(=O)C(C)N)c3c(cc(C)c(OC)c3O)CC12 (centres unmarked) [Safracin P-19B],3.9 µM

# Same assay, conditions: Homo sapiens, LNCaP, read-out: LC50 LN-caP
row,SMILES,CC50
1,COc1c(C)cc2c(c1O)C1NC(C2)C(O)N2C(CNC(=O)C(C)N)c3c(cc(C)c(OC)c3O)CC12 (centres unmarked) [Safracin P-19B],16.7 µM

# Test system: K-562
# Assay: not given
# Details: Leukemia
row,SMILES,TGI K-562
1,COc1c(C)cc2c(c1O)C1NC(C2)C(O)N2C(CNC(=O)C(C)N)c3c(cc(C)c(OC)c3O)CC12 (centres unmarked) [Safracin P-19B],5.77 µM

# Test system: A549
# Assay: not given
# Details: NSCL
row,SMILES,TGI A549
1,COc1c(C)cc2c(c1O)C1NC(C2)C(O)N2C(CNC(=O)C(C)N)c3c(cc(C)c(OC)c3O)CC12 (centres unmarked) [Safracin P-19B],>19.5 µM

# Test system: HELA
# Assay: not given
# Details: Cervix
row,SMILES,TGI HELA
1,COc1c(C)cc2c(c1O)C1NC(C2)C(O)N2C(CNC(=O)C(C)N)c3c(cc(C)c(OC)c3O)CC12 (centres unmarked) [Safracin P-19B],16.1 µM

# Test system: HELA-APL
# Assay: cells
# Details: read-out: GI50 HELA-APL
row,SMILES,GI50
1,COc1c(C)cc2c(c1O)C1NC(C2)C(O)N2C(CNC(=O)C(C)N)c3c(cc(C)c(OC)c3O)CC12 (centres unmarked) [Safracin P-19B],4.8 µM

# Same assay, conditions: read-out: LC50 HELA-APL
row,SMILES,CC50
1,COc1c(C)cc2c(c1O)C1NC(C2)C(O)N2C(CNC(=O)C(C)N)c3c(cc(C)c(OC)c3O)CC12 (centres unmarked) [Safracin P-19B],19.5 µM

# Test system: SK-BR3
# Assay: not given
# Details: Breast
row,SMILES,TGI SK-BR3
1,COc1c(C)cc2c(c1O)C1NC(C2)C(O)N2C(CNC(=O)C(C)N)c3c(cc(C)c(OC)c3O)CC12 (centres unmarked) [Safracin P-19B],19.2 µM

# Test system: PANC1
# Assay: not given
# Details: Pancreas
row,SMILES,TGI PANC1
1,COc1c(C)cc2c(c1O)C1NC(C2)C(O)N2C(CNC(=O)C(C)N)c3c(cc(C)c(OC)c3O)CC12 (centres unmarked) [Safracin P-19B],>19.5 µM

# Test system: LOVO
# Assay: cells
# Details: Homo sapiens, read-out: GI50 LOVO
row,SMILES,GI50
1,COc1c(C)cc2c(c1O)C1NC(C2)C(O)N2C(CNC(=O)C(C)N)c3c(cc(C)c(OC)c3O)CC12 (centres unmarked) [Safracin P-19B],> 19.5 µM

# Same assay, conditions: Homo sapiens, read-out: LC50 LOVO
row,SMILES,CC50
1,COc1c(C)cc2c(c1O)C1NC(C2)C(O)N2C(CNC(=O)C(C)N)c3c(cc(C)c(OC)c3O)CC12 (centres unmarked) [Safracin P-19B],> 19.5 µM

# Test system: IGROV
# Assay: cells
# Details: read-out: GI50 IGROV
row,SMILES,GI50
1,COc1c(C)cc2c(c1O)C1NC(C2)C(O)N2C(CNC(=O)C(C)N)c3c(cc(C)c(OC)c3O)CC12 (centres unmarked) [Safracin P-19B],5.42 µM

# Same assay, conditions: read-out: LC50 IGROV
row,SMILES,CC50
1,COc1c(C)cc2c(c1O)C1NC(C2)C(O)N2C(CNC(=O)C(C)N)c3c(cc(C)c(OC)c3O)CC12 (centres unmarked) [Safracin P-19B],> 19.5 µM

# Test system: A549
# Assay: cells
# Details: Homo sapiens, A549, read-out: GI50 A549
row,SMILES,GI50
1,COc1c(C)cc2c(c1O)C1NC(C2)C(O)N2C(CNC(=O)C(C)N)c3c(cc(C)c(OC)c3O)CC12 (centres unmarked) [Safracin P-19B],> 19.5 µM

# Same assay, conditions: Homo sapiens, A549, read-out: LC50 A549
row,SMILES,CC50
1,COc1c(C)cc2c(c1O)C1NC(C2)C(O)N2C(CNC(=O)C(C)N)c3c(cc(C)c(OC)c3O)CC12 (centres unmarked) [Safracin P-19B],> 19.5 µM

# Test system: Bacillus subtilis
# Assay: Antimicrobial activity on solid medium, disk
# Assay type: cell-based
# Details: 10 μg/disk (6 mm diameter)
# Description: Antimicrobial activity: On solid medium Bacillus subtilis. 10 μg/disk (6 mm diameter): 10 mm inhibition zone Spectroscopic Data: […]
row,SMILES,Antimicrobial activity: inhibition zone
1,COc1c(C)cc2c(c1O)C1NC(C2)C(O)N2C(CNC(=O)C(C)N)c3c(cc(C)c(OC)c3O)CC12 (centres unmarked) [Safracin P-19B],NO ACTIVE

# Test system: HT29
# Assay: not given
# Details: Colon
row,SMILES,TGI HT29
1,COc1c(C)cc2c(c1O)C1NC(C2)C(O)N2C(CNC(=O)C(C)N)c3c(cc(C)c(OC)c3O)CC12 (centres unmarked) [Safracin P-19B],>19.5 µM

# Test system: K-562
# Assay: cells
# Details: Homo sapiens, K562, read-out: GI50 K-562
row,SMILES,GI50
1,COc1c(C)cc2c(c1O)C1NC(C2)C(O)N2C(CNC(=O)C(C)N)c3c(cc(C)c(OC)c3O)CC12 (centres unmarked) [Safracin P-19B],2.38 µM

# Same assay, conditions: Homo sapiens, K562, read-out: LC50 K-562
row,SMILES,CC50
1,COc1c(C)cc2c(c1O)C1NC(C2)C(O)N2C(CNC(=O)C(C)N)c3c(cc(C)c(OC)c3O)CC12 (centres unmarked) [Safracin P-19B],14 µM

# Test system: LOVO-DOX
# Assay: cells
# Details: read-out: GI50 LOVO-DOX
row,SMILES,GI50
1,COc1c(C)cc2c(c1O)C1NC(C2)C(O)N2C(CNC(=O)C(C)N)c3c(cc(C)c(OC)c3O)CC12 (centres unmarked) [Safracin P-19B],14.4 µM

# Same assay, conditions: read-out: LC50 LOVO-DOX
row,SMILES,CC50
1,COc1c(C)cc2c(c1O)C1NC(C2)C(O)N2C(CNC(=O)C(C)N)c3c(cc(C)c(OC)c3O)CC12 (centres unmarked) [Safracin P-19B],> 19.5 µM

# Test system: IGROV
# Assay: not given
# Details: Ovary
row,SMILES,TGI IGROV
1,COc1c(C)cc2c(c1O)C1NC(C2)C(O)N2C(CNC(=O)C(C)N)c3c(cc(C)c(OC)c3O)CC12 (centres unmarked) [Safracin P-19B],14.8 µM

# Test system: HELA-APL
# Assay: not given
# Details: Cervix
row,SMILES,TGI HELA-APL
1,COc1c(C)cc2c(c1O)C1NC(C2)C(O)N2C(CNC(=O)C(C)N)c3c(cc(C)c(OC)c3O)CC12 (centres unmarked) [Safracin P-19B],10 µM
